Where a name gives a salt, the structure may show the parent alone. Read-outs that look alike come from different tables or passages of the source.
Test system: carbachol- or histamine-induced bronchoconstriction
Assay: Bronchodilator Test Method I, anesthetized dog, intravenous activity
Assay type: in vivo
Settings: Canis lupus familiaris, read-out: Bronchodilatation; for inhibition in vivo at 0.095 mg/kg: 95 mcg/kg i.v.; for inhibition in vivo at 0.19 mg/kg: 190 mcg/kg i.v.; for inhibition in vivo at 0.38 mg/kg: 380 mcg/kg i.v.; for inhibition in vivo at 0.014 mg/kg: 14 mcg/kg i.v.; for inhibition in vivo at 0.056 mg/kg: 56 mcg/kg i.v.; for inhibition in vivo at 0.294 mg/kg: 294 mcg/kg i.v.; for inhibition in vivo at 1.176 mg/kg: 1176 mcg/kg i.v.; for inhibition in vivo at 0.147 mg/kg: 147 mcg/kg i.v.; for inhibition in vivo at 0.152 mg/kg: 152 mcg/kg i.v.; for inhibition in vivo at 0.304 mg/kg: 304 mcg/kg i.v.; for inhibition in vivo at 0.075 mg/kg: 75 mcg/kg i.v.; for inhibition in vivo at […]: 150 mcg/kg i.v.; for inhibition in vivo at 0.3 mg/kg: 300 mcg/kg i.v.
Protocol: Bronchodilator activity was tested in anesthetized dogs (Test Method I) and in vitro on the perfused guinea pig lung (Test Method II), using the following pharmacological test procedures
Male and female dogs weighing 9-18 kg. each were anesthetized with pentobarbital sodium (30 mg./kg. i.v.). Each animal, with thorax opened at the midsternum, was maintained under artificial ventilation using a constant volume pump (250 ml./stroke; 10 to 12 strokes per minute) attached to the tracheal cannula. The flow of air was controlled by a glass or plastic valve which closed and opened respectively on inflow and outflow of the air to and from the tracheal cannula. Bronchoconstriction and/or bronchodilatation were measured from changes in the basal airway pressure reflected by a transducer attached to the sidearm of the cannula relayed to a polygraph.
Control bronchoconstrictions were induced by intravenous injections of carbachol (choline chloride carbamate) in doses ranging from 4 to 6 micrograms per kilogram or histamine diphosphate in doses ranging from 35 to 45 micrograms per kilogram.
Solutions of the test compounds were prepared in distilled water or in saline (for infusion). […] These solutions were then tested for bronchodilator activity in three ways, viz. (1) by mixing a graded dose of test compound with the constant does of carbachol or histamine in a syringe and injecting the mixture into the femoral vein of the dog, (2) by producing the bronchoconstriction first and injecting the test compound at the time of maximum constriction, and (3) by injecting the test compound first followed by carbachol or histamine in 1-10 minutes. Injections were repeated at 20-30 minutes. Bronchodilator values were obtained by measuring the areas under the response polygraph tracings (the first 5 munite period) of carbachol or histamine controls and of the experimentals using a planimeter. Decrease in the area thus measured was expressed as a percent bronchodilatation in reference to the area of control carbachol or histamine constriction. The mean bronchodilatations (the reductions in constrictions) were plotted against the doses administered and the mean effective dose (ED50) was estimated in micrograms/kilogram from the does-response curves. Blood pressure recording was taken from the femoral artery using an arterial transducer relayed to a polygraph.

Cc1ccccc1C(=O)Oc1ccc(C(O)CNC(C)(C)C)cc1OC(=O)c1ccccc1C (stereo not drawn) [Example 111, 3,4-bis(o-toluyloxy)-alpha-(tert-butylaminomethyl)benzyl alcohol methanesulfonate]
inhibition in vivo at 0.0095 mg/kg (1 min, 9.5 mcg/kg i.v., 1-2 min): 0%
inhibition in vivo at 0.095 mg/kg (1 min, 1-2 min): 34%
inhibition in vivo at 0.19 mg/kg (1 min, 1-2 min): 27%
inhibition in vivo at 0.38 mg/kg (1 min, 1-2 min): 33%
inhibition in vivo at 0.095 mg/kg (0.5 h, 30 min): 36%
inhibition in vivo at 0.38 mg/kg (0.5 h, 30 min): 53%
inhibition in vivo at 0.19 mg/kg (1 h, 60 min): 18%
inhibition in vivo at 0.0475 mg/kg (2 h, 47.5 mcg/kg i.v., 120 min): 0%
inhibition in vivo at 0.095 mg/kg (2 h, 120 min): 32%
inhibition in vivo at 0.19 mg/kg (2 h, 120 min): 31%
inhibition in vivo at 0.38 mg/kg (2 h, 120 min): 55%
inhibition in vivo at 0.095 mg/kg (3 h, 180 min): 48%
inhibition in vivo at 0.19 mg/kg (3 h, 180 min): 35%
inhibition in vivo at 0.38 mg/kg (3 h, 180 min): 38%
inhibition in vivo at 0.095 mg/kg (4 h, 240 min): 41%
inhibition in vivo at 0.19 mg/kg (4 h, 240 min): 41%
inhibition in vivo at 0.095 mg/kg (5 h, 300 min): 50%
inhibition in vivo at 0.19 mg/kg (5 h, 300 min): 25%

COc1ccc(CC(=O)Oc2ccc(C(O)CNC(C)(C)C)cc2OC(=O)Cc2ccc(OC)cc2)cc1 (stereo not drawn) [Example 118, 3,4-bis(p-methoxyphenylacetoxy)-alpha-(tert-butylaminomethyl)benzyl alcohol hydrochloride]
inhibition in vivo at 0.014 mg/kg (5 min, 5 min): 68%
inhibition in vivo at 0.056 mg/kg (5 min, 5 min): 100%
inhibition in vivo at 0.014 mg/kg (0.5 h, 30 min): 61%
inhibition in vivo at 0.056 mg/kg (0.5 h, 30 min): 60%
inhibition in vivo at 0.014 mg/kg (1 h, 60 min): 35%
inhibition in vivo at 0.056 mg/kg (1 h, 60 min): 45%
inhibition in vivo at 0.014 mg/kg (2 h, 120 min): 7%
inhibition in vivo at 0.056 mg/kg (2 h, 120 min): 12%

CNCC(O)c1ccc(OC(=O)c2ccc(C)cc2)c(OC(=O)c2ccc(C)cc2)c1 (stereo not drawn) [Example 126, 3,4-bis(p-toluyloxy)-alpha-(methylaminomethyl)benzyl alcohol methanesulfonate]
inhibition in vivo at 0.294 mg/kg (1 min, 1-2 min): 13%
inhibition in vivo at 1.176 mg/kg (1 min, 1-2 min): 100%
inhibition in vivo at 0.147 mg/kg (0.5 h, 30 min): 27%
inhibition in vivo at 0.294 mg/kg (0.5 h, 30 min): 8%
inhibition in vivo at 1.176 mg/kg (0.5 h, 30 min): 47%
inhibition in vivo at 0.147 mg/kg (1 h, 60 min): 15%
inhibition in vivo at 0.294 mg/kg (1 h, 60 min): 17%
inhibition in vivo at 1.176 mg/kg (1 h, 60 min): 20%

CCC(NC(C)C)C(O)c1ccc(OC(=O)c2ccc(C)cc2)c(OC(=O)c2ccc(C)cc2)c1 (stereo not drawn) [Example 132, 3,4-bis(p-toluyloxy)-alpha-[1-(isopropylamino)propyl]benzyl alcohol hydrochloride]
inhibition in vivo at 0.152 mg/kg (5 min, 5 min): 67%
inhibition in vivo at 0.304 mg/kg (5 min, 5 min): 100%
inhibition in vivo at 0.152 mg/kg (0.5 h, 30 min): 75%
inhibition in vivo at 0.304 mg/kg (0.5 h, 30 min): 67%
inhibition in vivo at 0.152 mg/kg (1 h, 60 min): 71%
inhibition in vivo at 0.152 mg/kg (2 h, 120 min): 52%
inhibition in vivo at 0.152 mg/kg (3 h, 180 min): 43%
inhibition in vivo at 0.152 mg/kg (4 h, 240 min): 0%
inhibition in vivo at 0.152 mg/kg (5 h, 300 min): 0%
inhibition in vivo at 0.304 mg/kg (5 h, 300 min): 0%

CC(=O)OC(CNC(C)(C)C)c1ccc(OC(=O)c2ccc(C)cc2)c(OC(=O)c2ccc(C)cc2)c1 (stereo not drawn) [Example 134, 3,4-bis(p-toluyloxy)-alpha-(tert-butylaminomethyl)benzyl acetate]
inhibition in vivo at 0.075 mg/kg (5 min, 5 min): 25%
inhibition in vivo at […] (5 min, 5 min): 54%
inhibition in vivo at 0.3 mg/kg (5 min, 5 min): 47%
inhibition in vivo at 0.075 mg/kg (0.5 h, 30 min): 21%
inhibition in vivo at […] (0.5 h, 30 min): 58%
inhibition in vivo at 0.075 mg/kg (1 h, 60 min): 5%
inhibition in vivo at […] (1 h, 60 min): 52%
inhibition in vivo at 0.075 mg/kg (2 h, 120 min): 0%
inhibition in vivo at […] (2 h, 120 min): 35%
inhibition in vivo at 0.075 mg/kg (3 h, 180 min): 0%
inhibition in vivo at […] (3 h, 180 min): 20%
inhibition in vivo at […] (4 h, 240 min): 0%
inhibition in vivo at 0.3 mg/kg (4 h, 240 min): 36%
